IC50 data for 31 compounds are collected here from US20170037028A1 (BAYER PHARMA AKTIENGESELLSCHAFT, priority 2013, published 2017).

Molecules are shown by their SMILES.

The first assay addresses T1, GLUT1 (Homo sapiens, UniProt P11166).
T1 sequence (P11166 1-492): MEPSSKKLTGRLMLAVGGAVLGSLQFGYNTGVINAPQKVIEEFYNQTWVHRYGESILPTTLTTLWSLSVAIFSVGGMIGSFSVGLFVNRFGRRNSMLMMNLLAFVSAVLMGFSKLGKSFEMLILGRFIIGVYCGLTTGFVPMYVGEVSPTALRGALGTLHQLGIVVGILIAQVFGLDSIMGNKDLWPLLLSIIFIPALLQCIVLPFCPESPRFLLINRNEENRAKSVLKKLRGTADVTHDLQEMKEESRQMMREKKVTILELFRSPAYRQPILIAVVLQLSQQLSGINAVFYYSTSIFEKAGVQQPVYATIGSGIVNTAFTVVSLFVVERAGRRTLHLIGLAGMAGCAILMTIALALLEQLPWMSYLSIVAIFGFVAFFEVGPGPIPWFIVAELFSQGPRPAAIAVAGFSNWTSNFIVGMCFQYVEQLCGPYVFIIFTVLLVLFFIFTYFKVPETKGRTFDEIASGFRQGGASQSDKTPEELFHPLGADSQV
The assay can be described thus: Indirect measurement of GLUT1 activity by quantification of intracellular ATP levels (glucose induced ATP increase). It counts as cell-based. Particulars: DLD1 cells; 0.1 mM glucose, 1 μM Rotenone, 15 min; CellTiter-Glo ATP readout; IC50 values standardized to cytochalasin B IC50 values; read-out: IC50 regarding glucose induced ATP increase (GLUT1 inhibition). The arrangement: endogenous in cells; host or cells: DLD1 or CHO-K1. A digest of the protocol: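 DLD1 or CHO-K1 cells were starved overnight in glucose-free medium with 1% FCS, then combined with an oxidative phosphorylation inhibitor. GLUT1 activity was read as glucose-induced ATP increase, GLUT2 as fructose-induced. Intracellular ATP was quantified by CellTiter-Glo luminescence.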
(Cellular ATP, detected with luciferase, serves as a proxy for viable cell number.)
In general, IC50 refers to the concentration at which inhibition is half-maximal. As to `Cc1c(NC(=O)c2cc(C(N)=O)nc3cc(F)cc(F)c23)c(C(F)(F)F)nn1Cc1ccc(C#N)cc1` [Example 243, N^4-[1-(4-cyanobenzyl)-5-methyl-3-(trifluoromethyl)-1H-pyrazol-4-yl]-5,7-difluoroquinoline-2,4-dicarboxamide], the IC50 came to 0.5 nM.
Still for that read-out and setting: with `COc1ccc2nc(C(N)=O)cc(C(=O)Nc3c(C(F)(F)F)nn(Cc4ccc(C#N)cc4)c3C)c2c1` [Example 245, N^4-[1-(4-cyanobenzyl)-5-methyl-3-(trifluoromethyl)-1H-pyrazol-4-yl]-6-methoxyquinoline-2,4-dicarboxamide] the figure was 0.3 nM.

Still in this assay, the particulars now being: read-out: IC50 regarding glucose induced ATP increase (GLUT1 inhibition).
Consider `Cc1cccc2nc(C(N)=O)cc(C(=O)Nc3c(C(F)(F)F)nn(Cc4ccc(C#N)cc4)c3C)c12` [Example 244, N^4-[1-(4-cyanobenzyl)-5-methyl-3-(trifluoromethyl)-1H-pyrazol-4-yl]-5-methylquinoline-2,4-dicarboxamide], for which the IC50 is 17.6 nM.
Take `Cc1c(NC(=O)c2cc(C(N)=O)nc3cc(Cl)ccc23)c(C(F)(F)F)nn1Cc1ccc(C#N)cc1` [Example 246, 7-chloro-N^4-[1-(4-cyanobenzyl)-5-methyl-3-(trifluoromethyl)-1H-pyrazol-4-yl]quinoline-2,4-dicarboxamide]: the concentration for half-maximal inhibition (IC50) stood at 2.6 nM.
On the same count and under the same terms, as for `Cc1c(NC(=O)c2cc(C(N)=O)nc3c(F)cccc23)c(C(F)(F)F)nn1Cc1ccc(C#N)cc1` [Example 247, N^4-[1-(4-cyanobenzyl)-5-methyl-3-(trifluoromethyl)-1H-pyrazol-4-yl]-8-fluoroquinoline-2,4-dicarboxamide], the figure is 4.9 nM; as for `Cc1c(NC(=O)c2cc(C(N)=O)nc3ccc(Cl)cc23)c(C(F)(F)F)nn1Cc1ccc(C#N)cc1` [Example 248, 6-chloro-N^4-[1-(4-cyanobenzyl)-5-methyl-3-(trifluoromethyl)-1H-pyrazol-4-yl]quinoline-2,4-dicarboxamide], 0.6 nM.
For the compound `Cc1c(NC(=O)c2cc(C(N)=O)nc3cccc(F)c23)c(C(F)(F)F)nn1Cc1ccc(C#N)cc1` [Example 249, N^4-[1-(4-cyanobenzyl)-5-methyl-3-(trifluoromethyl)-1H-pyrazol-4-yl]-5-fluoroquinoline-2,4-dicarboxamide], the half-maximal inhibitory concentration (IC50) turned out to be 1 nM.
On to `Cc1c(NC(=O)c2cc(C(N)=O)nc3ccc(Br)cc23)c(C(F)(F)F)nn1Cc1ccc(C#N)cc1` [Example 250], for which the IC50 came out at 3.6 nM.
The same measure, in the same setting: as for `Cc1nn(Cc2ccc(C#N)cc2)c(C)c1NC(=O)c1cc(C(N)=O)nc2c(F)cc(Cl)cc12` [Example 252, 6-chloro-N^4-[1-(4-cyanobenzyl)-3,5-dimethyl-1H-pyrazol-4-yl]-8-fluoroquinoline-2,4-dicarboxamide], the figure is 1.2 nM; as for `Cc1nn(Cc2ccc(C#N)cc2)c(C)c1NC(=O)c1cc(C(N)=O)nc2cc(F)cc(F)c12` [Example 253, N^4-[1-(4-cyanobenzyl)-3,5-dimethyl-1H-pyrazol-4-yl]-5,7-difluoroquinoline-2,4-dicarboxamide], 0.5 nM.
Take `COc1cc2c(C(=O)Nc3c(C)nn(Cc4ccc(C#N)cc4)c3C)cc(C(N)=O)nc2cc1F` [Example 254, N^4-[1-(4-cyanobenzyl)-3,5-dimethyl-1H-pyrazol-4-yl]-7-fluoro-6-methoxyquinoline-2,4-dicarboxamide]: the concentration for half-maximal inhibition (IC50) was 1.2 nM.
Consider `Cc1nn(Cc2ccc(C#N)cc2)c(C)c1NC(=O)c1cc(C(N)=O)nc2c(Cl)cccc12` [Example 255, 8-chloro-N^4-[1-(4-cyanobenzyl)-3,5-dimethyl-1H-pyrazol-4-yl]quinoline-2,4-dicarboxamide], for which the concentration for half-maximal inhibition (IC50) worked out at 1.4 nM.
Still for that read-out and setting: as for `Cc1cc2c(C(=O)Nc3c(C)nn(Cc4ccc(C#N)cc4)c3C)cc(C(N)=O)nc2cc1F` [Example 256, N^4-[1-(4-cyanobenzyl)-3,5-dimethyl-1H-pyrazol-4-yl]-7-fluoro-6-methylquinoline-2,4-dicarboxamide], the figure is 2.4 nM; as for `Cc1nn(Cc2ccc(C#N)cc2)c(C)c1NC(=O)c1cc(C(N)=O)nc2cccc(C)c12` [Example 257, N^4-[1-(4-cyanobenzyl)-3,5-dimethyl-1H-pyrazol-4-yl]-5-methylquinoline-2,4-dicarboxamide], 2.4 nM; as for `COc1ccc2nc(C(N)=O)cc(C(=O)Nc3c(C)nn(Cc4ccc(C#N)cc4)c3C)c2c1` [Example 258, N^4-[1-(4-cyanobenzyl)-3,5-dimethyl-1H-pyrazol-4-yl]-6-methoxyquinoline-2,4-dicarboxamide], 1 nM.
For the compound `Cc1nn(Cc2ccc(C#N)cc2)c(C)c1NC(=O)c1cc(C(N)=O)nc2ccccc12` [Example 259, N^4-[1-(4-cyanobenzyl)-3,5-dimethyl-1H-pyrazol-4-yl]quinoline-2,4-dicarboxamide], the IC50 was found to be 9.7 nM.
The same measure, in the same setting: as for `Cc1nn(Cc2ccc(C#N)cc2)c(C)c1NC(=O)c1cc(C(N)=O)nc2cc(Cl)ccc12` [Example 260, 7-chloro-N^4-[1-(4-cyanobenzyl)-3,5-dimethyl-1H-pyrazol-4-yl]quinoline-2,4-dicarboxamide], the figure is 4.7 nM.
Consider `Cc1nn(Cc2ccc(C#N)cc2)c(C)c1NC(=O)c1cc(C(N)=O)nc2ccc(Cl)cc12` [Example 261, 6-chloro-N^4-[1-(4-cyanobenzyl)-3,5-dimethyl-1H-pyrazol-4-yl]quinoline-2,4-dicarboxamide], for which the IC50 was 0.5 nM.
Regarding `Cc1nn(Cc2ccc(C#N)cc2)c(C)c1NC(=O)c1cc(C(N)=O)nc2cccc(F)c12` [Example 262, N^4-[1-(4-cyanobenzyl)-3,5-dimethyl-1H-pyrazol-4-yl]-5-fluoroquinoline-2,4-dicarboxamide], the concentration for half-maximal inhibition (IC50) amounted to 1.2 nM.
As for `Cc1nn(Cc2ccc(C#N)cc2)c(C)c1NC(=O)c1cc(C(N)=O)nc2c(F)cccc12` [Example 263, N^4-[1-(4-cyanobenzyl)-3,5-dimethyl-1H-pyrazol-4-yl]-8-fluoroquinoline-2,4-dicarboxamide], the IC50 came to 3.9 nM.
In the case of `Cc1ccc2nc(C(N)=O)cc(C(=O)Nc3c(C)nn(Cc4ccc(C#N)cc4)c3C)c2c1` [Example 264, N^4-[1-(4-cyanobenzyl)-3,5-dimethyl-1H-pyrazol-4-yl]-6-methylquinoline-2,4-dicarboxamide], the half-maximal inhibitory concentration (IC50) is 2.6 nM.
Take `COc1cc(C(=O)Nc2c(C)nn(Cc3ccc(C#N)cc3)c2C)c2cc(F)ccc2n1` [Example 265, N-[1-(4-cyanobenzyl)-3,5-dimethyl-1H-pyrazol-4-yl]-6-fluoro-2-methoxyquinoline-4-carboxamide]: the concentration for half-maximal inhibition (IC50) turned out to be 6.6 nM.
Take `Cc1nn(Cc2ccccc2C#N)c(C)c1NC(=O)c1cc(C(N)=O)nc2cc(F)ccc12` [Example 266, N^4-[1-(2-cyanobenzyl)-3,5-dimethyl-1H-pyrazol-4-yl]-7-fluoroquinoline-2,4-dicarboxamide]: the IC50 stood at 1 nM.
Same read-out and setting: as for `Cc1nn(Cc2ccccc2C#N)c(C)c1NC(=O)c1cc(C(N)=O)nc2cccc(F)c12` [Example 267, N^4-[1-(2-cyanobenzyl)-3,5-dimethyl-1H-pyrazol-4-yl]-5-fluoroquinoline-2,4-dicarboxamide], the figure is 2.6 nM.
On to `Cc1nn(Cc2ccccc2C#N)c(C)c1NC(=O)c1cc(C(N)=O)nc2ccc(Br)cc12` [Example 268, 6-bromo-N^4-[1-(2-cyanobenzyl)-3,5-dimethyl-1H-pyrazol-4-yl]quinoline-2,4-dicarboxamide], for which the IC50 worked out at 0.6 nM.
In the case of `Cc1nn(Cc2ccccc2C#N)c(C)c1NC(=O)c1cc(C(N)=O)nc2c(F)cc(Cl)cc12` [Example 269, 6-chloro-N^4-[1-(2-cyanobenzyl)-3,5-dimethyl-1H-pyrazol-4-yl]-8-fluoroquinoline-2,4-dicarboxamide], the IC50 came out at 1.5 nM.
As to `Cc1c(NC(=O)c2cc(C(N)=O)nc3cc(F)c(Cl)cc23)c(C(F)(F)F)nn1Cc1ccccc1C#N` [Example 270, 6-chloro-N^4-[1-(2-cyanobenzyl)-5-methyl-3-(trifluoromethyl)-1H-pyrazol-4-yl]-7-fluoroquinoline-2,4-dicarboxamide], the IC50 is 1.8 nM.
`Cc1c(NC(=O)c2cc(C(N)=O)nc3ccccc23)c(C(F)(F)F)nn1Cc1ccccc1C#N` [Example 271, N^4-[1-(2-cyanobenzyl)-5-methyl-3-(trifluoromethyl)-1H-pyrazol-4-yl]quinoline-2,4-dicarboxamide]: the IC50 was 3.6 nM.
As for `Cc1c(NC(=O)c2cc(C(N)=O)nc3cc(F)ccc23)c(C(F)(F)F)nn1Cc1ccccc1C#N` [Example 272, N^4-[1-(2-cyanobenzyl)-5-methyl-3-(trifluoromethyl)-1H-pyrazol-4-yl]-7-fluoroquinoline-2,4-dicarboxamide], the half-inhibitory concentration (IC50) amounted to 2.5 nM.
On to `Cc1c(NC(=O)c2cc(C(N)=O)nc3cccc(F)c23)c(C(F)(F)F)nn1Cc1ccccc1C#N` [Example 273, N^4-[1-(2-cyanobenzyl)-5-methyl-3-(trifluoromethyl)-1H-pyrazol-4-yl]-5-fluoroquinoline-2,4-dicarboxamide], for which the IC50 was 5.9 nM.
As for `Cc1c(NC(=O)c2cc(C(N)=O)nc3ccc(Br)cc23)c(C(F)(F)F)nn1Cc1ccccc1C#N` [Example 274, 6-bromo-N^4-[1-(2-cyanobenzyl)-5-methyl-3-(trifluoromethyl)-1H-pyrazol-4-yl]quinoline-2,4-dicarboxamide], the 50% inhibitory concentration (IC50) was determined as 1 nM.
